From the supplement of paper PMC10307832 come the findings set out here.

Test in all cases: relative viability (nuclei count vs DMSO), 5 days (fraction); higher = more cells survive
Compound in experiment [1]: Cc1cnc(Nc2ccc(OCCN3CCCC3)cc2)nc1Nc1cccc(S(=O)(=O)NC(C)(C)C)c1 [Fedratinib] + COc1cccc2cc(-c3nc([C@H]4CC[C@H](C(=O)O)CC4)n4ncnc(N)c34)[nH]c12 [OSI-027] (partner 0.5 µM)
In outline:
(§1)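 The day after seeding in 1536-well plates, lung cancer cell lines were treated by pin tool with a single drug, or with a fixed anchor-drug dose together with five library-drug doses (not always all listed) in √10 steps. After 5 days, a combined fix-and-stain solution (final 0.05% Triton X-100, 1% formaldehyde, 1 ug/ml Hoechst) was added. Nuclei counted on 4× images gave relative viability as treated counts over vehicle counts, reported as the median of duplicate plates.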

Compound in experiment [2]: Cc1cnc(Nc2ccc(OCCN3CCCC3)cc2)nc1Nc1cccc(S(=O)(=O)NC(C)(C)C)c1 [Fedratinib] + C[C@@H](Oc1cc(-c2cnn(C3CCNCC3)c2)cnc1N)c1c(Cl)ccc(F)c1Cl [Crizotinib] (partner 1 µM)
In outline:
as §1

Compound in experiment [3]: Cc1cnc(Nc2ccc(OCCN3CCCC3)cc2)nc1Nc1cccc(S(=O)(=O)NC(C)(C)C)c1 [Fedratinib] + CC(=O)Nc1cccc(-n2c(=O)n(C3CC3)c(=O)c3c(Nc4ccc(I)cc4F)n(C)c(=O)c(C)c32)c1 [Trametinib] (partner 0.02 µM)
A digest of the protocol: as §1

Compound in experiment [4]: COC1=CC=C(C=C1)COC2=C(C=C(C=C2)CC3=CN=C(N=C3N)N)OC [GW-2580] + N=C(N)NC(=N)NCCc1ccccc1 [Phenformin] (partner 250 µM)
A digest of the protocol:
as §1

Compound in experiment [5]: COC1=CC=C(C=C1)COC2=C(C=C(C=C2)CC3=CN=C(N=C3N)N)OC [GW-2580] + O=C(c1cc(Cc2n[nH]c(=O)c3ccccc23)ccc1F)N1CCN(C(=O)C2CC2)CC1 [Olaparib] (partner 8 µM)
A digest of the protocol:
as §1

As to NCI-H838, the relative viability in experiment [1] (first compound 0.1 µM) is 0.31; in experiment [1] (first compound 0.3162 µM), 0.471; in experiment [1] (first compound 1 µM), 0.259; in experiment [2] (first compound 0.1 µM) it was 0.669; in experiment [2] (first compound 0.3162 µM), 0.847; in experiment [2] (first compound 1 µM), 0.745. Besides, the relative viability stood at 0.475 in experiment [3] (first compound 0.1 µM); 0.525 in experiment [3] (first compound 0.3162 µM); 0.542 in experiment [3] (first compound 1 µM); 0.651 in experiment [4] (first compound 0.08 µM); 0.59 in experiment [4] (first compound 0.8 µM); 0.549 in experiment [4] (first compound 2.53 µM). Further, the relative viability in experiment [4] (first compound 8 µM) stood at 0.648; in experiment [5] (first compound 0.08 µM), 0.906; in experiment [5] (first compound 0.8 µM) it was 0.938; in experiment [5] (first compound 2.53 µM), 0.838; in experiment [5] (first compound 8 µM) it was 0.94.
As for CAL-12T, the relative viability in experiment [1] (first compound 0.1 µM) was found to be 0.566; in experiment [1] (first compound 0.3162 µM) it was 0.694; in experiment [1] (first compound 1 µM), 0.474; in experiment [2] (first compound 0.1 µM) it was 0.262; in experiment [2] (first compound 0.3162 µM) it was 0.588; in experiment [2] (first compound 1 µM) it was 0.322. In addition, the relative viability in experiment [3] (first compound 0.1 µM) is 0.4; in experiment [3] (first compound 0.3162 µM), 0.332; in experiment [3] (first compound 1 µM), 0.304; in experiment [4] (first compound 0.08 µM), 0.624; in experiment [4] (first compound 0.8 µM) it was 0.613; in experiment [4] (first compound 2.53 µM), 0.609. Further, the relative viability in experiment [4] (first compound 8 µM) turned out to be 0.514; in experiment [5] (first compound 0.08 µM) it was 0.743; in experiment [5] (first compound 0.8 µM), 0.817; in experiment [5] (first compound 2.53 µM), 0.726; in experiment [5] (first compound 8 µM), 0.69.
